Measurements taken from PubChem BioAssay (NCI).
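Tested at 5 concentrations; 48 h exposure; 96-well plates; endpoints linearly interpolated, else capped at highest concentration. At the GI50, growth is halved. TGI is the concentration that stops growth completely.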

Assays:
Assay in all cases: inhibition of tumour cell growth, NCI panel, 48 h
786-0 renal = test system: 786-0 renal
A498 renal = test system: A498 renal
A549 NSCLC = test system: A549 NSCLC
ACHN renal = test system: ACHN renal
BT-549 breast = test system: BT-549 breast
CAKI-1 renal = test system: CAKI-1 renal
CCRF-CEM leukemia = test system: CCRF-CEM leukemia
COLO 205 colon = test system: COLO 205 colon
DU-145 prostate = test system: DU-145 prostate
EKVX NSCLC = test system: EKVX NSCLC
HCC-2998 colon = test system: HCC-2998 colon
HCT-116 colon = test system: HCT-116 colon
HCT-15 colon = test system: HCT-15 colon
HL-60(TB) leukemia = test system: HL-60(TB) leukemia
HOP-62 NSCLC = test system: HOP-62 NSCLC
HOP-92 NSCLC = test system: HOP-92 NSCLC
HS 578T breast = test system: HS 578T breast
HT29 colon = test system: HT29 colon
IGROV1 ovarian = test system: IGROV1 ovarian
K-562 leukemia = test system: K-562 leukemia
KM12 colon = test system: KM12 colon
LOX IMVI melanoma = test system: LOX IMVI melanoma
M14 melanoma = test system: M14 melanoma
MALME-3M melanoma = test system: MALME-3M melanoma
MCF7 breast = test system: MCF7 breast
MDA-MB-231 breast = test system: MDA-MB-231 breast
MDA-MB-435 = test system: MDA-MB-435
MOLT-4 leukemia = test system: MOLT-4 leukemia
NCI-H226 lung = test system: NCI-H226 lung
NCI-H23 lung = test system: NCI-H23 lung
NCI-H460 lung = test system: NCI-H460 lung
NCI-H522 lung = test system: NCI-H522 lung
NCI/ADR-RES ovarian = test system: NCI/ADR-RES ovarian
OVCAR-3 ovarian = test system: OVCAR-3 ovarian
OVCAR-4 ovarian = test system: OVCAR-4 ovarian
OVCAR-5 ovarian = test system: OVCAR-5 ovarian
OVCAR-8 ovarian = test system: OVCAR-8 ovarian
PC-3 prostate = test system: PC-3 prostate
RPMI-8226 leukemia = test system: RPMI-8226 leukemia
RXF 393 renal = test system: RXF 393 renal
SF-268 CNS = test system: SF-268 CNS
SF-295 CNS = test system: SF-295 CNS
SF-539 CNS = test system: SF-539 CNS
SK-MEL-2 melanoma = test system: SK-MEL-2 melanoma
SK-MEL-28 melanoma = test system: SK-MEL-28 melanoma
SK-MEL-5 melanoma = test system: SK-MEL-5 melanoma
SK-OV-3 ovarian = test system: SK-OV-3 ovarian
SN12C renal = test system: SN12C renal
SNB-19 CNS = test system: SNB-19 CNS
SNB-75 CNS = test system: SNB-75 CNS
SR leukemia = test system: SR leukemia
SW-620 colon = test system: SW-620 colon
T-47D breast = test system: T-47D breast
TK-10 renal = test system: TK-10 renal
U251 CNS = test system: U251 CNS
UACC-257 melanoma = test system: UACC-257 melanoma
UACC-62 melanoma = test system: UACC-62 melanoma
UO-31 renal = test system: UO-31 renal

## COc1ccc(CNc2c3ccccc3nc3ccccc23)cc1OC
786-0 renal
  GI50: 2.78 µM
  TGI: 12.1 µM
A498 renal
  GI50: 1.97 µM
  TGI: 4.8 µM
A549 NSCLC
  GI50: 2.24 µM
  TGI: 6.87 µM
ACHN renal
  GI50: 1.39 µM
  TGI: 7.94 µM
BT-549 breast
  GI50: 3.15 µM
  TGI: 12.2 µM
CAKI-1 renal
  GI50: 1.87 µM
  TGI: 6.33 µM
CCRF-CEM leukemia
  GI50: 2.82 µM
  TGI: 19.2 µM
COLO 205 colon
  GI50: 1.32 µM
  TGI: 3.82 µM
DU-145 prostate
  GI50: 2.8 µM
  TGI: 8.43 µM
EKVX NSCLC
  GI50: 2.7 µM
  TGI: 12.4 µM
HCC-2998 colon
  GI50: 2.28 µM
  TGI: 8.76 µM
HCT-116 colon
  GI50: 0.944 µM
  TGI: 10.9 µM
HCT-15 colon
  GI50: 2.2 µM
  TGI: 7.17 µM
HL-60(TB) leukemia
  GI50: 2.96 µM
  TGI: 10 µM
HOP-62 NSCLC
  GI50: 2.96 µM
  TGI: 13.3 µM
HOP-92 NSCLC
  GI50: 1.62 µM
  TGI: 7.83 µM
HS 578T breast
  GI50: 2.64 µM
  TGI: 10.1 µM
HT29 colon
  GI50: 1.71 µM
  TGI: 7.85 µM
IGROV1 ovarian
  GI50: 2.3 µM
  TGI: 6.55 µM
K-562 leukemia
  GI50: 2.34 µM
  TGI: 25.2 µM
KM12 colon
  GI50: 3.65 µM
  TGI: 15.5 µM
LOX IMVI melanoma
  GI50: 1.4 µM
  TGI: 3.47 µM
M14 melanoma
  GI50: 1.97 µM
  TGI: 4.76 µM
MALME-3M melanoma
  GI50: 1.95 µM
  TGI: 4.98 µM
MCF7 breast
  GI50: 2.24 µM
  TGI: 6.66 µM
MDA-MB-231 breast
  GI50: 2.37 µM
  TGI: 7.32 µM
MDA-MB-435
  GI50: 2.93 µM
  TGI: 10 µM
MOLT-4 leukemia
  GI50: 2.25 µM
  TGI: 25.6 µM
NCI-H226 lung
  GI50: 2.25 µM
  TGI: 7.04 µM
NCI-H23 lung
  GI50: 2.13 µM
  TGI: 7.47 µM
NCI-H460 lung
  GI50: 2.49 µM
  TGI: 6.51 µM
NCI-H522 lung
  GI50: 1.55 µM
  TGI: 4.15 µM
NCI/ADR-RES ovarian
  GI50: 1.75 µM
  TGI: 6.61 µM
OVCAR-3 ovarian
  GI50: 2.64 µM
  TGI: 8.39 µM
OVCAR-4 ovarian
  GI50: 2.39 µM
  TGI: 7.99 µM
OVCAR-5 ovarian
  GI50: 2.56 µM
  TGI: 11 µM
OVCAR-8 ovarian
  GI50: 2.17 µM
  TGI: 12.1 µM
PC-3 prostate
  GI50: 2.58 µM
  TGI: 9.97 µM
RPMI-8226 leukemia
  GI50: 2.2 µM
  TGI: 5.59 µM
RXF 393 renal
  GI50: 1.49 µM
  TGI: 3.64 µM
SF-268 CNS
  GI50: 3.21 µM
  TGI: 13 µM
SF-295 CNS
  GI50: 2.19 µM
  TGI: 7.2 µM
SF-539 CNS
  GI50: 2.82 µM
  TGI: 11.3 µM
SK-MEL-2 melanoma
  GI50: 2.28 µM
  TGI: 6.4 µM
SK-MEL-28 melanoma
  GI50: 3.14 µM
  TGI: 10.8 µM
SK-MEL-5 melanoma
  GI50: 1.87 µM
  TGI: 3.64 µM
SK-OV-3 ovarian
  GI50: 2.44 µM
  TGI: 8.33 µM
SN12C renal
  GI50: 2.36 µM
  TGI: 8.54 µM
SNB-19 CNS
  GI50: 3.3 µM
  TGI: 17.2 µM
SNB-75 CNS
  GI50: 2.39 µM
  TGI: 11.3 µM
SR leukemia
  GI50: 1.34 µM
  TGI: 7.2 µM
SW-620 colon
  GI50: 1.69 µM
  TGI: 10.1 µM
T-47D breast
  GI50: 3.43 µM
  TGI: 14.1 µM
TK-10 renal
  GI50: 2.34 µM
  TGI: 8.44 µM
U251 CNS
  GI50: 2.98 µM
  TGI: 13.6 µM
UACC-257 melanoma
  GI50: 2.73 µM
  TGI: 8.22 µM
UACC-62 melanoma
  GI50: 2.42 µM
  TGI: 7.46 µM
UO-31 renal
  GI50: 1.17 µM
  TGI: 5.05 µM
